Assay results: patent US20080213364A1, “Formulations of Pyridoxal-5'-Phosphate and Methods of Preparation” (Medicure International, Inc., priority 2004, published 2008)

What was measured:
[1] = Single-dose pharmacokinetics study, plasma pyridoxal 5′-phosphate; settings: both, human, in vivo
Protocol: (§1) Pharmacokinetics Study—The protocol was designed to first study a single dose of pyridoxal 5′-phosphate at three different dose levels: […] of body weight. Following evaluation of safety and tolerance, the highest tolerated dose was administered once daily for seven consecutive days. The product was manufactured as enteric-coated tablets each containing 250 mg of pyridoxal 5′-phosphate. The dose was calculated based on the body weight and rounded to the nearest 250 mg.
During the single-dose phase, blood samples were collected prior to dosing and 1, 2, 3, 4, 5, 6, 7, 8, 12, 16 and 24 hours following drug administration. During the multi-dose phase, blood samples were drawn each morning prior to dosing and 2 hours post-dose. Following the last dose on day 7, blood samples were drawn after 1, 2, 3, 4, 5, 6, 7, 8, 12, 16 and 24 hours.
Plasma samples were separated and divided into two approximately equal aliquots and stored at −70±10° C. pending shipment (over dry ice) to the analytical laboratory.
(§2) Pharmacokinetic Analysis—The following pharmacokinetic parameters were calculated: area under the curve from time zero to the last measurable concentration (AUC-T), area under the curve from time zero to infinity (AUC-inf), maximal plasma concentration (Cmax), time of maximal plasma concentration (Tmax), elimination constant (Kel), half-life (T½), mean residence time (MRT), clearance (Cl) and volume of distribution (Vd).
Whenever possible, the area under the plasma concentration-time curve was calculated from time zero to the last measurable concentration (AUC T) using the linear trapezoidal method. AUC-T is expressed as ng·h/ml. AUC-T was also normalized for body weight and expressed as ng·h/ml/kg.
The area under the curve from time zero to infinity (AUC-inf) was calculated as the sum of AUC-T+Clast/Kel where Clast represents the last measurable concentration and Kel the elimination rate constant calculated by linear least squares regression using the data points that best represent the terminal linear phase. AUC-inf is expressed as ng·h/ml. AUC-inf was also normalized for body weight and expressed as ng·h/mg/kg.
Cmax is expressed in ng/ml. Cmax was also normalized for body weight and expressed as ng/ml/kg. […]
The oral clearance was evaluated by dividing the dose (mg/kg) by AUC-inf (ng·h/mL). Clearance is expressed as L/h/kg. The actual clearance was also calculated without normalization for body weight and expressed as L/h.
The volume of distribution is actually the Vdarea calculated by dividing the clearance (L/h/kg) by Kel (h-1). Vd is expressed as L/kg and is not corrected for absolute bioavailability. The actual volume of distribution was also calculated without normalization for body weight and expressed in liters. […]

[2] = type: in vivo; settings: 30 mg/kg daily as enteric coated tablets, Day 1 vs Day 7 parameters
Protocol: as §1
During the single-dose phase, blood samples were collected prior to dosing and 1, 2, 3, 4, 5, 6, 7, 8, 12, 16 and 24 hours following drug administration. […]
as §2
Subjects randomized to the 15 mg/kg group actually received a dose of 14.58±1.11 mg/kg. […] During the multi-dose phase of the study, the number of tablets was calculated prior to the first drug administration and remained constant throughout the duration of the study, regardless of any change in body weight. […]

## Cc1ncc(COP(=O)(O)O)c(C=O)c1O [pyridoxal 5′-phosphate]
[1]; 15 mg/kg
  mean maximal plasma concentration (mean curve, FIG. 3): 1870 ± 2652 ng/mL
  time at which mean maximal plasma concentration was reached: 6 h
[1]; 60 mg/kg
  mean maximal plasma concentration (mean curve, FIG. 3): 3922 ± 5457 ng/mL
  time at which mean maximal plasma concentration was reached: 4 h
[2]
  accumulation upon multiple dosing: does not accumulate upon multiple dosing
